Measured values from patent US20230074545A1, “TREATMENT OF CANCER WITH CDK12/13 INHIBITORS” (Kinnate Biopharma Inc., priority 2019, published 2023).
Read-outs that look alike come from different tables or passages of the source.

Experiments:
CDK2 = target: T1, CDK2 (Homo sapiens, UniProt P24941); assay: Radiometric kinase assay (33PanQinase); type: biochemical; conditions: read-out: Inhibition of CDK Activity (molar inhibition in a radiometric assay)
T1 construct: either as full-length or enzymatically active fragments; purchased ProQinase GmbH (Reaction Biology); host or cells: Sf9 insect cells or E. coli
Experimental: (§1) The compounds 1-5 (see Table 1) were assayed for kinase activity at ProQinase (ProQinase GmbH, Reaction Biology; Freiburg, Germany) using their commercially available radiometric kinase assay services. Briefly, the compounds were provided as solids and were dissolved to 1×10^−03 M/100% DMSO stock solutions on the day of assay. All protein kinases were provided by ProQinase and were expressed in Sf9 insect cells or in E. coli as recombinant GST-fusion proteins or His-tagged proteins, either as full-length or enzymatically active fragments. All kinases were produced from human cDNAs and purified by either GSH-affinity chromatography or immobilized metal. The purity of the protein kinases was examined by SDS-PAGE/Coomassie staining, the identity was checked by mass spectroscopy. A radiometric protein kinase assay (^33PanQinase® Activity Assay) was used for measuring the kinase activity of the protein kinase. All kinase assays were performed in 96-well FlashPlates™ from PerkinElmer (Boston, Mass., USA) in a 50 microliter reaction volume. The reaction cocktail was pipetted in four steps in the following order: 1) 25 microliter of assay buffer (standard buffer/[gamma-^33P]-ATP); 2) 10 microliter of ATP solution (in H2O); 3) 5 microliter of test compound (in 10% DMSO); 4) 10 microliter of enzyme/substrate mixture.
(§2) As a parameter for assay quality, the Z′-factor (Zhang et al., J. Biomol. Screen. 2: 67-73, 1999) for the low and high controls of each assay plate (n=8) was used. ProQinase's criterion for repetition of an assay plate is a Z′-factor below 0.4.

CDK13 = target: T2, CDK13 (Homo sapiens, UniProt Q14004); assay: Radiometric kinase assay (33PanQinase); type: biochemical; conditions: read-out: Inhibition of CDK Activity (molar inhibition in a radiometric assay)
T2 construct: either as full-length or enzymatically active fragments; purchased ProQinase GmbH (Reaction Biology)
Experimental: as §1, §2

CDK9 = target: T3, CDK9 (Homo sapiens, UniProt P50750); assay: Radiometric kinase assay (33PanQinase); type: biochemical; conditions: read-out: Inhibition of CDK Activity (molar inhibition in a radiometric assay)
T3 construct: either as full-length or enzymatically active fragments; purchased ProQinase GmbH (Reaction Biology); host or cells: Sf9 insect cells or E. coli
Experimental: as §1, §2

CDK12 = target: T4, CDK12 (Homo sapiens, UniProt Q9NYV4); assay: Radiometric kinase assay (33PanQinase); type: biochemical; conditions: read-out: Inhibition of CDK Activity (molar inhibition in a radiometric assay)
T4 construct: either as full-length or enzymatically active fragments; purchased ProQinase GmbH (Reaction Biology)
Experimental: as §1, §2

CDK7 = target: T5, CDK7 (Homo sapiens, UniProt P50613); assay: Radiometric kinase assay (33PanQinase); type: biochemical; conditions: read-out: Inhibition of CDK Activity (molar inhibition in a radiometric assay)
T5 construct: either as full-length or enzymatically active fragments; purchased ProQinase GmbH (Reaction Biology); host or cells: Sf9 insect cells or E. coli
Experimental: as §1, §2

OVCAR-3 cells = assay: OVCAR-3 cell proliferation (CellTiter-Glo); type: cell-based; conditions: Homo sapiens, read-out: Inhibition of proliferation of OVCAR3 cells (IC50 in M)
Excerpt: OVCAR-3 was used as the cell line to model for ovarian cancer in vitro and in vivo. This cell line was obtained from ATCC (Catalog #HTB-161) and is an adenocarcinoma line from the malignant ascites of a patient with progressive adenocarcinoma of the ovary and embodies a preclinical model of high-grade, serous ovarian cancer (HGSOC). OVCAR-3 has been deemed an appropriate model system in which to study drug resistance in ovarian cancer, and the presence of hormone receptors should be useful for the evaluation of hormonal therapy. OVCAR-3 is resistant to clinically relevant concentrations of adriamycin, melphalan and cisplatin.
(§3) Compounds 1-5 were tested at different concentrations (from 4 μM to 126.4 pM; 0.5 log serial dilutions) for their ability to inhibit the proliferation of OVCAR-3 cells. Cells were grown in ATCC-formulated RPMI-1640 Medium (ATCC 30-2001)+10% FBS. The cells were cultured at 37° C. in a humidified chamber in the presence of 5% CO2. Proliferation assays were conducted over a 72 hour time period.
(§4) Cells were cultured and maintained as described above, with cells always fed on the day prior to assay. Assays were run with a 2 hour compound exposure followed by a washout and then a 72 hour proliferation time or exposed to the test compounds for 72 hours with no washout of compound. DMSO was used as a control in all wells not receiving test compound and DMSO wells were used for plate normalization. Proliferation and survival of cells was quantified based on the amount of total ATP following cell lysis as determined by using a standard assay kit used according to manufacturer's instructions. Experiments were performed in the same media used by each cell type for growth and maintenance. Cells (5×10^4) were plated in 96 well plates for compound exposure. CellTiter-Glo® (Promega Corporation, Madison, Wis. USA) was used to assess the anti-proliferative effects of the compounds following manufacturer's directions and utilizing the reagents supplied with the CellTiter-Glo® kit.

HCC70 cells = assay: HCC70 cell proliferation (CellTiter-Glo); type: cell-based; conditions: Homo sapiens, read-out: Inhibition of Proliferation of HCC70 Cells (IC50 in M)
Experimental: HCC70 was the cell line used as a model of triple-negative breast cancer (TNBC). This cell line was obtained from ATCC and was initiated from a primary ductal carcinoma in 1992 (Catalog #CRL-2315; mammary gland primary ductal carcinoma). The HCC-70 tumor cell line was maintained in vitro as a monolayer culture in RPMI-1640 medium supplemented with 10% heat inactivated fetal bovine serum at 37° C. in an atmosphere of 5% CO2 in air.
as §3, with “Representative compounds” for “Compounds 1-5”, “HCC70” for “OVCAR-3”
as §4

RNA polymerase II [1] = assay: Inhibition of phosphorylation of RNA polymerase II in NCI-H82 cells; type: cell-based; conditions: Homo sapiens, 2 hours, phosphorylated/total RNA polymerase II
Experimental: CDK12 and CDK13 phosphorylate RNA polymerase II. The ability of compound 1 to inhibit phosphorylation of RNA polymerase II was analyzed in NCI-H82 cells. 200,000 cells were plated in each well of a 96 well MSD plate. Cells were treated with compound 1, THZ531 (a positive control), or E9 at concentrations between 4 μM to 126.4 pM (0.5 log serial dilutions) for 2 hours. THZ531 and E9 are further discussed in Gao et al, Cell Chemical Biology 2017. The amount of phosphorylated RNA polymerase II and the total amount of RNA polymerase II was analyzed using antibodies. The values were normalized by taking the ratio of the phosphorylated RNA polymerase II to the total RNA polymerase II. As depicted in FIG. 3A (THZ531), FIG. 3B (Compound 1), and Table 6, increasing the concentration of compound 1 results in a dose-specific increase in the inhibition of phosphorylation of RNA polymerase II.

RNA polymerase II [2] = assay: Phosphorylation of RNA polymerase II (pS2/S2) in HCC70 xenograft; type: in vivo, CB-17 SCID mice; conditions: intravenous
Experimental: The ability of compound 4 and compound 5 to inhibit phosphorylation of RNA polymerase II at the S2 unit was analyzed in a mouse xenograft model of triple-negative breast cancer. CB-17 SCID mice were inoculated with the HCC70 cells as the in vivo model for triple negative breast cancer. Each mouse was inoculated subcutaneously on the right flank with HCC70 tumor cells (5×106) in 0.1 mL of RPMI-1640 Medium and Matrigel mixture (1:1 ratio) for tumor development. The treatment started when the mean tumor size reached approximately 100-150 mm^3. Mice were treated intravenously with vehicle only, 20 mg/kg of compound 4, 25 mg/kg of compound 4, 10 mg/kg of compound 5, or 25 mg/kg of compound 5 for 2 hours. Measurements were taken at 0.5 hours, 6 hours and 24 hours after the dose. The amount of phosphorylated RNA polymerase II and the total amount of RNA polymerase II was analyzed. The values were normalized by taking the ratio of the phosphorylated RNA polymerase II to the total RNA polymerase II (pS2/S2).

[3] = OVCAR-3 (no washout), exposed for 72 hours
[4] = HCC70 (no washout), exposed for 72 hours
[5] = HCC70 (w/washout), 2 hour exposure, washout, 72 hour proliferation
[6] = OVCAR-3 (w/washout), 2 hour exposure, washout, 72 hour proliferation

T5 sequence (P50613 whole entry, the tested form may be a part): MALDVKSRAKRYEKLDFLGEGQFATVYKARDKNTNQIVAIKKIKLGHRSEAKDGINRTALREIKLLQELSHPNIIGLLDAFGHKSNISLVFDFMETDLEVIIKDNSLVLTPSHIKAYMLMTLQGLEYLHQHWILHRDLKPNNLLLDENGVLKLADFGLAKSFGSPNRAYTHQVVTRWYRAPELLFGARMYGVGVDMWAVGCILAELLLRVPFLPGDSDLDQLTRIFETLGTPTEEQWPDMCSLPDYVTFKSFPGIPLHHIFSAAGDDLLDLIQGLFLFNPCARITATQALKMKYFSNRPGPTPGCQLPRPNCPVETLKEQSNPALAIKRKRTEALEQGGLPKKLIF
T5 sequence (P51946 whole entry partner, the tested form may be a part): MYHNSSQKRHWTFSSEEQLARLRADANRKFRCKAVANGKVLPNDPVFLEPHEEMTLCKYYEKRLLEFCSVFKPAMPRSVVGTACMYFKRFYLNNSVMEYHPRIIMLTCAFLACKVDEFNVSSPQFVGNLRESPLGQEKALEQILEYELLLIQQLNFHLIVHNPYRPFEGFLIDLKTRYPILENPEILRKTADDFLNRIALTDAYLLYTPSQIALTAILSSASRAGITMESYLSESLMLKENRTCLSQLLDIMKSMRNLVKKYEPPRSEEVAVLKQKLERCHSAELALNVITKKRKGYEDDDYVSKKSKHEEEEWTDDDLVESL
T5 sequence (P51948 whole entry partner, the tested form may be a part): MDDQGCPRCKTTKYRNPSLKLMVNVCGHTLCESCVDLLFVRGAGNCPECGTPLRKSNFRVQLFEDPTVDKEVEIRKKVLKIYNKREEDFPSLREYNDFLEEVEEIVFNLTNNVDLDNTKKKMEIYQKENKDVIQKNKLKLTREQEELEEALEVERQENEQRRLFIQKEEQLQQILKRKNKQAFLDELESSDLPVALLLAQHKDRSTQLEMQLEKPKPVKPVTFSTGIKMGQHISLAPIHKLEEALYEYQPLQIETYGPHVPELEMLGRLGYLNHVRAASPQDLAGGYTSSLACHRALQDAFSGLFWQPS
T2 sequence (Q14004 whole entry, the tested form may be a part): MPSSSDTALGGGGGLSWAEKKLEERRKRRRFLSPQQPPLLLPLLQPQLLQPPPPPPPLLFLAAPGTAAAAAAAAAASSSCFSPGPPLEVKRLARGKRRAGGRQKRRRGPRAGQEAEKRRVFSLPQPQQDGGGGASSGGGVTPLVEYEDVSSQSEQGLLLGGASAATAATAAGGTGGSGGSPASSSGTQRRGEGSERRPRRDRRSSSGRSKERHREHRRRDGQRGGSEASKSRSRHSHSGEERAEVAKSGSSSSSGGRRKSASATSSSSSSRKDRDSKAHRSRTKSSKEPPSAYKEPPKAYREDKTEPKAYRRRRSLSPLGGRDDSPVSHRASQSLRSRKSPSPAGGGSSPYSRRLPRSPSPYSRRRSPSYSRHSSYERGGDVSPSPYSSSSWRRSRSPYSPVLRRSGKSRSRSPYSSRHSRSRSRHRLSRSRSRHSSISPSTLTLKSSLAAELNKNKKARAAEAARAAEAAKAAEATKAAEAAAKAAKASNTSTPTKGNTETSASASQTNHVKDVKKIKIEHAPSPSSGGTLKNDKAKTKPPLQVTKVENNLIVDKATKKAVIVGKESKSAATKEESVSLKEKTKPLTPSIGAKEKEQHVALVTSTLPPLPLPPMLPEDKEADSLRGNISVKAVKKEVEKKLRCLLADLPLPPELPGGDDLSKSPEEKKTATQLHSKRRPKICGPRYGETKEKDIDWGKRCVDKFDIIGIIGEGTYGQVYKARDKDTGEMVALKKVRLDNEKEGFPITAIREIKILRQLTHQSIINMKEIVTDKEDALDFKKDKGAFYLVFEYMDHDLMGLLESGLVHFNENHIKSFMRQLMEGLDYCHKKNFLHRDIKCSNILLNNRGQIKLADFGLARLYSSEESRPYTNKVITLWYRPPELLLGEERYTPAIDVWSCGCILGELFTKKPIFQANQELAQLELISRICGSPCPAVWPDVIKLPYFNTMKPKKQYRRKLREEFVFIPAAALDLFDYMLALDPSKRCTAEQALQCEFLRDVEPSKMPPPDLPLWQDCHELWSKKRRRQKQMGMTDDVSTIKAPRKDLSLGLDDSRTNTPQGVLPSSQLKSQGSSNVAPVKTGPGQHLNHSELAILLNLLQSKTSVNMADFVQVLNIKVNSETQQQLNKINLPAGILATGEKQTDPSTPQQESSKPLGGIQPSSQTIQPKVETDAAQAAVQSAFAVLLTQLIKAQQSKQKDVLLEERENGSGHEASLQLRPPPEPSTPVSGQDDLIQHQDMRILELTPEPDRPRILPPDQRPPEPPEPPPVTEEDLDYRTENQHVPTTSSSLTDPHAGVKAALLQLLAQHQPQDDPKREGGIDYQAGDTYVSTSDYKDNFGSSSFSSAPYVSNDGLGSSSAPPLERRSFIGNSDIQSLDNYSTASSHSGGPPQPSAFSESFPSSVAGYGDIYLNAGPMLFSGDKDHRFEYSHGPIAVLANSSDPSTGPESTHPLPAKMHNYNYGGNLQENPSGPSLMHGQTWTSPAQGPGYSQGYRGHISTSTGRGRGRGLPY
T2 sequence (O75909 whole entry partner, the tested form may be a part): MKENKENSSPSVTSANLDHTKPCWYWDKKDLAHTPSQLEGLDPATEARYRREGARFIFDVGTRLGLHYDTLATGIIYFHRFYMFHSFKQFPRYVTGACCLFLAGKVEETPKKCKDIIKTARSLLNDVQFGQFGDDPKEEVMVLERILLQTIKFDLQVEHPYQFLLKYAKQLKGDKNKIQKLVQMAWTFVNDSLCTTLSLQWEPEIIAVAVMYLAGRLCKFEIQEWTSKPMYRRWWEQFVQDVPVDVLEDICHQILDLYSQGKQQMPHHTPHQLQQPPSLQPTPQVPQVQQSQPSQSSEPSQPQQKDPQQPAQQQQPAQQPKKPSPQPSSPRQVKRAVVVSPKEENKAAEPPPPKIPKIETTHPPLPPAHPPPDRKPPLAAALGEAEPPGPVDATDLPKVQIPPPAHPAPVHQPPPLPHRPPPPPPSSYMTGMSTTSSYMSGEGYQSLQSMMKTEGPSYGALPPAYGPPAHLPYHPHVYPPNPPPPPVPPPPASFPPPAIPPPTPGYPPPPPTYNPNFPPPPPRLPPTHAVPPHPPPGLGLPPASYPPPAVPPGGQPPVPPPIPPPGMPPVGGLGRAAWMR
T4 sequence (Q9NYV4 whole entry, the tested form may be a part): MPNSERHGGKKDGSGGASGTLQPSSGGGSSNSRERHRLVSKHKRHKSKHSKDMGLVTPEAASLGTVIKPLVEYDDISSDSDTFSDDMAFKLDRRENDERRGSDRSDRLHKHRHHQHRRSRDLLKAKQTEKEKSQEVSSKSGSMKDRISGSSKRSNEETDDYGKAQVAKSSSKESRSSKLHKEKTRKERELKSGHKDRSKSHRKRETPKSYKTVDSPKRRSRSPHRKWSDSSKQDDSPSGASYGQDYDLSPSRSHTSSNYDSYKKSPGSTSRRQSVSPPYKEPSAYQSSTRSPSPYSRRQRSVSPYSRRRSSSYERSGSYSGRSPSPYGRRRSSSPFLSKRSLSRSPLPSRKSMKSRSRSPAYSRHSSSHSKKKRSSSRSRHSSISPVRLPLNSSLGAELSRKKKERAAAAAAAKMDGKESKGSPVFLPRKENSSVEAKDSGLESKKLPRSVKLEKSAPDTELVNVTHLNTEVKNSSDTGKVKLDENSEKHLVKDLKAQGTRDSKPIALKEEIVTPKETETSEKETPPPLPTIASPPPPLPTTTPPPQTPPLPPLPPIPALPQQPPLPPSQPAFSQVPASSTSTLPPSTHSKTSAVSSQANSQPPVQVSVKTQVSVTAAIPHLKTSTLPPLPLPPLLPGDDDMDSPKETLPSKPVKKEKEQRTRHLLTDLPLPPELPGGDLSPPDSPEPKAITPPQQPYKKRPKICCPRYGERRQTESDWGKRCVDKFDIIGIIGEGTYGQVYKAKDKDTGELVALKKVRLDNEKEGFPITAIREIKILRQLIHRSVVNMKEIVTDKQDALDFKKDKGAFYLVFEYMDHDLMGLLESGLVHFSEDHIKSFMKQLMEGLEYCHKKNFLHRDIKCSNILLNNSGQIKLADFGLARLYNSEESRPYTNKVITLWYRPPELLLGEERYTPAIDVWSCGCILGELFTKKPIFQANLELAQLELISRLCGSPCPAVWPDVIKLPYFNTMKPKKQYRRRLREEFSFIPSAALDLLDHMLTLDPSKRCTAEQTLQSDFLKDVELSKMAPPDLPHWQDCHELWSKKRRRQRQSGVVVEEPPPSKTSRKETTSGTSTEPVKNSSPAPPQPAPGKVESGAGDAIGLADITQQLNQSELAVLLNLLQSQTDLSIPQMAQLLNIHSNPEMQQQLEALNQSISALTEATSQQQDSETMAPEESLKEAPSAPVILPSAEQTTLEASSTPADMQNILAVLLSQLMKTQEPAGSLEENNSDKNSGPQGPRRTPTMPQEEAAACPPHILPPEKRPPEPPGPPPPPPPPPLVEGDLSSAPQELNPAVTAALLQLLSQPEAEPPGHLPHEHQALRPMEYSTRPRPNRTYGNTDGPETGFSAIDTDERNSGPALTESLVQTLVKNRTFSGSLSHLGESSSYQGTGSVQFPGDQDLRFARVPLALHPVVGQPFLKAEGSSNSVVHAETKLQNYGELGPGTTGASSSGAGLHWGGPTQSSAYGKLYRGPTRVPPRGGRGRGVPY
T4 sequence (O75909 whole entry partner, the tested form may be a part): as the sequence (O75909 whole entry partner, the tested form may be a part) above

IC50 (RNA polymerase II [1]) | SMILES | IC50 (CDK2) | IC50 (CDK13) | IC50 (CDK9) | IC50 (CDK12) | IC50 (CDK7) | IC50 (OVCAR-3 cells; [3]) | IC50 (HCC70 cells; [4]) | IC50 (HCC70 cells; [5]) | IC50 (OVCAR-3 cells; [6]) | decrease in the pS2/S2 ratio, 25 mg/kg versus 10 mg/kg (RNA polymerase II [2]; all time points (0.5, 6, 24 hours)) | pS2/S2 compared to treatment with the vehicle alone (RNA polymerase II [2]; compound 4 20 or 25 mg/kg, compound 5 10 or 25 mg/kg, 0.5, 6 and 24 hours after the dose)
– | C=CC(=O)N(C)c1ccc(C(=O)N2CC[C@@H](Nc3ncc(Cl)c(OC)n3)C2)cc1 [Compound 2, (R)-N-(4-(3-((5-chloro-4-methoxypyrimidin-2-yl)amino)pyrrolidine-1-carbonyl)phenyl)-N-methylacrylamide] | 11300 nM | 324 nM | 1320 nM | 54.4 nM | 518 nM | 7.63 nM | 11.3 nM | 38 nM | – | – | –
– | C=CC(=O)Nc1ccc(C(=O)N2CC[C@@H](Nc3ncc(Cl)cn3)C2)cc1 [Compound 3, (R)-N-(4-(3-((5-chloropyrimidin-2-yl)amino)pyrrolidine-1-carbonyl)phenyl)acrylamide] | 7930 nM | 379 nM | 1170 nM | 96.7 nM | 2790 nM | 7.45 nM | 10.1 nM | 110 nM | 33.7 nM | – | –
312 nM | CN(C)C/C=C/C(=O)Nc1ccc(C(=O)N2CCC[C@@H](Nc3ncc(Cl)c(-c4c[nH]c5ccccc45)n3)C2)cc1 [THZ531, reference compound] | – | – | – | – | – | – | – | – | – | – | –
– | C#Cc1cnc(N[C@@H]2CCN(C(=O)c3ccc(NC(=O)C=C)cc3)C2)nc1 [Compound 5, (R)-N-(4-(3-((5-ethynylpyrimidin-2-yl)amino)pyrrolidine-1-carbonyl)phenyl)acrylamide] | 3370 nM | 104 nM | 1370 nM | 59.3 nM | 3770 nM | 10.1 nM | 19.3 nM | 82.1 nM | 103 nM | greater decrease | reduced the pS2/S2 at all time points
